Measurements: article PMC5218480 (PLoS ONE, 2017)

System: MV-4-11 cells
Assay: Gene expression microarray analysis (Affymetrix PrimeView) and GSEA
Assay type: cell-based, human
Set-up: RFU PODN (11730768_x_at) / Fold change /veh PODN (11730768_x_at) / RFU LINC00158 (11744669_a_at) / Fold change /veh LINC00158 (11744669_a_at) / RFU DUSP10 (11751237_a_at) / Fold change /veh DUSP10 (11751237_a_at) / RFU ID3 (11757404_x_at) / Fold change /veh ID3 (11757404_x_at) / RFU PLEKHG5 (11737974_s_at) / Fold change /veh PLEKHG5 (11737974_s_at) / RFU LRRC4B (11730491_at) / Fold change /veh LRRC4B (11730491_at) / RFU GIMAP4 (11747438_a_at) / Fold change /veh GIMAP4 (11747438_a_at) / RFU KRT8 (11758183_x_at) / Fold change /veh KRT8 (11758183_x_at) / RFU CNN1 (11734310_a_at) / Fold change /veh CNN1 (11734310_a_at) / RFU VPS37D (11726825_at) / Fold change /veh VPS37D (11726825_at) / RFU C10orf10 (11716522_x_at) / Fold change /veh C10orf10 (11716522_x_at) / RFU KIR2DL2 /// KIR2DL4 /// KIR2DL5A /// KIR2DL5B /// KIR2DS1 /// KIR2DS2 /// KIR2DS3 /// KIR2DS4 /// KIR3DL3 /// KIR3DL3 /// KIR3DS1 (11738374_at) / Fold change /veh KIR2DL2 /// KIR2DL4 /// KIR2DL5A /// KIR2DL5B /// KIR2DS1 /// KIR2DS2 /// KIR2DS3 /// KIR2DS4 /// KIR3DL3 /// KIR3DL3 /// KIR3DS1 (11738374_at) / RFU C1QL1 (11718748_at) / Fold change /veh C1QL1 (11718748_at) / RFU TMPRSS4 (11747572_a_at) / Fold change /veh TMPRSS4 (11747572_a_at) / RFU HAMP (11756126_x_at) / Fold change /veh HAMP (11756126_x_at) / RFU RNFT2 (11725882_a_at) / Fold change /veh RNFT2 (11725882_a_at) / RFU NR4A2 (11747474_a_at) / Fold change /veh NR4A2 (11747474_a_at) / RFU ABCC12 (11746883_a_at) / Fold change /veh ABCC12 (11746883_a_at) / RFU TMEM136 (11760407_x_at) / Fold change /veh TMEM136 (11760407_x_at) / RFU CLDN22 /// WWC2 (11732394_at) / Fold change /veh CLDN22 /// WWC2 (11732394_at) / RFU HLA-DPB1 (11760878_x_at) / Fold change /veh HLA-DPB1 (11760878_x_at) / RFU SPINT1 (11716480_a_at) / Fold change /veh SPINT1 (11716480_a_at) / RFU GAP43 (11754022_s_at) / Fold change /veh GAP43 (11754022_s_at) / RFU A4GNT (11735810_at) / Fold change /veh A4GNT (11735810_at) / RFU PRB3 (11715151_x_at) / Fold change /veh PRB3 (11715151_x_at) / RFU TUBB4B (11761932_at) / Fold change /veh TUBB4B (11761932_at) / RFU CAPN14 (11732068_a_at) / Fold change /veh CAPN14 (11732068_a_at) / RFU TMCC2 (11721928_a_at) / Fold change /veh TMCC2 (11721928_a_at) / RFU IRGQ (11745062_a_at) / Fold change /veh IRGQ (11745062_a_at) / RFU FAM174B (11720279_a_at) / Fold change /veh FAM174B (11720279_a_at) / RFU TMPRSS4 (11748680_a_at) / Fold change /veh TMPRSS4 (11748680_a_at) / RFU FAM212B (11763350_a_at) / Fold change /veh FAM212B (11763350_a_at) / RFU PLEKHG5 (11743358_a_at) / Fold change /veh PLEKHG5 (11743358_a_at) / RFU ZSCAN30 (11745921_a_at) / Fold change /veh ZSCAN30 (11745921_a_at) / RFU CMKLR1 (11741424_a_at) / Fold change /veh CMKLR1 (11741424_a_at) / RFU LOC101060620 /// MAPK8IP1 (11723275_at) / Fold change /veh LOC101060620 /// MAPK8IP1 (11723275_at) / RFU SPTSSB (11747773_x_at) / Fold change /veh SPTSSB (11747773_x_at) / RFU PRSS12 (11739890_at) / Fold change /veh PRSS12 (11739890_at) / RFU BIN1 (11741810_x_at) / Fold change /veh BIN1 (11741810_x_at) / RFU WNT11 (11732464_a_at) / Fold change /veh WNT11 (11732464_a_at) / RFU C10orf10 (11716521_a_at) / Fold change /veh C10orf10 (11716521_a_at) / RFU C5orf56 (11738089_at) / Fold change /veh C5orf56 (11738089_at) / RFU CYB561 (11721691_x_at) / Fold change /veh CYB561 (11721691_x_at) / RFU ANKRD19P (11752326_a_at) / Fold change /veh ANKRD19P (11752326_a_at) / RFU OR2T12 /// OR2T33 /// OR2T8 (11738714_s_at) / Fold change /veh OR2T12 /// OR2T33 /// OR2T8 (11738714_s_at) / RFU VCAN (11748164_a_at) / Fold change /veh VCAN (11748164_a_at) / RFU JSRP1 (11732532_at) / Fold change /veh JSRP1 (11732532_at) / RFU KRTAP10-11 (11738290_x_at) / Fold change /veh KRTAP10-11 (11738290_x_at) / RFU MYO3A (11730013_a_at) / Fold change /veh MYO3A (11730013_a_at) / RFU EBF3 (11725865_a_at) / Fold change /veh EBF3 (11725865_a_at) / RFU CAMK2N1 (11719241_x_at) / Fold change /veh CAMK2N1 (11719241_x_at) / RFU C5orf56 (11738088_a_at) / Fold change /veh C5orf56 (11738088_a_at) / RFU OLFML3 (11715873_a_at) / Fold change /veh OLFML3 (11715873_a_at) / RFU LOC100653217 /// NTM (11731650_a_at) / Fold change /veh LOC100653217 /// NTM (11731650_a_at) / RFU MAPK11 (11762145_a_at) / Fold change /veh MAPK11 (11762145_a_at) / RFU FIZ1 (11724087_x_at) / Fold change /veh FIZ1 (11724087_x_at) / RFU OASL (11726364_x_at) / Fold change /veh OASL (11726364_x_at) / RFU SOX15 (11748057_x_at) / Fold change /veh SOX15 (11748057_x_at) / RFU CD79A (11719716_a_at) / Fold change /veh CD79A (11719716_a_at) / RFU HIST1H1D (11736915_at) / Fold change /veh HIST1H1D (11736915_at) / RFU CASKIN2 (11723855_a_at) / Fold change /veh CASKIN2 (11723855_a_at) / RFU LOC730098 (11760151_x_at) / Fold change /veh LOC730098 (11760151_x_at) / RFU OR4N2 (11742367_at) / Fold change /veh OR4N2 (11742367_at) / RFU PRRT2 (11749266_a_at) / Fold change /veh PRRT2 (11749266_a_at) / RFU SNX32 (11753110_a_at) / Fold change /veh SNX32 (11753110_a_at) / RFU CDHR5 (11726645_a_at) / Fold change /veh CDHR5 (11726645_a_at) / RFU RCAN1 (11760418_a_at) / Fold change /veh RCAN1 (11760418_a_at) / RFU FAM167A (11723789_a_at) / Fold change /veh FAM167A (11723789_a_at) / RFU FAM26E (11764081_at) / Fold change /veh FAM26E (11764081_at) / RFU ISYNA1 (11749810_s_at) / Fold change /veh ISYNA1 (11749810_s_at) / RFU ACY1 (11761880_at) / Fold change /veh ACY1 (11761880_at) / RFU 11764098_at / Fold change /veh 11764098_at / RFU SAMD14 (11745864_x_at) / Fold change /veh SAMD14 (11745864_x_at) / RFU NPB (11741838_a_at) / Fold change /veh NPB (11741838_a_at) / RFU TMPRSS6 (11731388_a_at) / Fold change /veh TMPRSS6 (11731388_a_at) / RFU KRTAP10-2 (11738614_at) / Fold change /veh KRTAP10-2 (11738614_at) / RFU ARHGAP8 /// PRR5-ARHGAP8 (11727945_x_at) / Fold change /veh ARHGAP8 /// PRR5-ARHGAP8 (11727945_x_at) / RFU KRTAP5-7 /// NADSYN1 (11734609_at) / Fold change /veh KRTAP5-7 /// NADSYN1 (11734609_at) / RFU RASL12 (11751679_a_at) / Fold change /veh RASL12 (11751679_a_at) / RFU CDKN2B (11736163_a_at) / Fold change /veh CDKN2B (11736163_a_at) / RFU PRF1 (11729649_at) / Fold change /veh PRF1 (11729649_at) / RFU, ZNF638 /// ZNF638-IT1 / Fold change vs veh, ZNF638 /// ZNF638-IT1 / RFU, PANK3 / Fold change vs veh, PANK3 / RFU, SH3YL1 / Fold change vs veh, SH3YL1 / RFU, ZEB2 / Fold change vs veh, ZEB2 / RFU, NRIP1 / Fold change vs veh, NRIP1 / RFU, PTTG1IP / Fold change vs veh, PTTG1IP / RFU, CAPN2 / Fold change vs veh, CAPN2 / RFU, MED14 / Fold change vs veh, MED14 / RFU, SNORA58 / Fold change vs veh, SNORA58 / RFU, C1orf63 / Fold change vs veh, C1orf63 / RFU, LRRFIP1 / Fold change vs veh, LRRFIP1 / RFU, NDUFAF7 / Fold change vs veh, NDUFAF7 / RFU, SLC12A2 / Fold change vs veh, SLC12A2 / RFU, IBTK / Fold change vs veh, IBTK / RFU, ESF1 / Fold change vs veh, ESF1 / Fold change vs veh, TMEM50B / RFU, TAOK1 / Fold change vs veh, TAOK1 / RFU, ACBD3 / Fold change vs veh, ACBD3 / RFU, TMA16 / Fold change vs veh, TMA16 / RFU, RWDD3 / Fold change vs veh, RWDD3 / RFU, BCAT1 / Fold change vs veh, BCAT1 / RFU, EDEM3 / Fold change vs veh, EDEM3 / RFU, TMEM33 / Fold change vs veh, TMEM33 / RFU, WDR75 / Fold change vs veh, WDR75 / RFU, AHCTF1 / Fold change vs veh, AHCTF1 / RFU, TFRC / Fold change vs veh, TFRC / RFU, ZDHHC17 / Fold change vs veh, ZDHHC17 / RFU, NOM1 / Fold change vs veh, NOM1 / RFU, ARL8B / Fold change vs veh, ARL8B / RFU, ZBTB11 / Fold change vs veh, ZBTB11 / RFU, TAMM41 / Fold change vs veh, TAMM41 / RFU, KIAA1704 /// LOC100996395 / Fold change vs veh, KIAA1704 /// LOC100996395 / RFU, ING1 / Fold change vs veh, ING1 / RFU, TRMT61B / Fold change vs veh, TRMT61B / RFU, FUBP3 / Fold change vs veh, FUBP3 / RFU, TP53 / Fold change vs veh, TP53 / RFU, TNKS2 / Fold change vs veh, TNKS2 / RFU, ZFP14 / Fold change vs veh, ZFP14 / RFU, ACTR2 / Fold change vs veh, ACTR2 / RFU, PPP3R1 / Fold change vs veh, PPP3R1 / RFU, PIK3R1 / Fold change vs veh, PIK3R1 / RFU, HNRNPA1 / Fold change vs veh, HNRNPA1 / RFU, RNF170 / Fold change vs veh, RNF170 / RFU, ZNF28 / Fold change vs veh, ZNF28 / RFU, RNGTT / Fold change vs veh, RNGTT / RFU, OGT / Fold change vs veh, OGT / RFU, BRD1 / Fold change vs veh, BRD1 / RFU, MARS / Fold change vs veh, MARS / RFU, ZNF655 / Fold change vs veh, ZNF655 / RFU, FAHD1 / Fold change vs veh, FAHD1 / RFU, BDP1 / Fold change vs veh, BDP1 / RFU, LRRCC1 / Fold change vs veh, LRRCC1 / RFU, ARID1A / Fold change vs veh, ARID1A / RFU, ZNF146 / Fold change vs veh, ZNF146 / RFU, ZNF330 / Fold change vs veh, ZNF330 / RFU, GPN3 / Fold change vs veh, GPN3 / RFU, C9orf123 / Fold change vs veh, C9orf123 / RFU, N4BP2L2 / Fold change vs veh, N4BP2L2 / RFU, ARFIP1 / Fold change vs veh, ARFIP1 / RFU, FAM179B / Fold change vs veh, FAM179B / RFU, BCL10 / Fold change vs veh, BCL10 / RFU, UHRF1BP1L / Fold change vs veh, UHRF1BP1L / RFU, BET1 / Fold change vs veh, BET1 / RFU, CNOT2 / Fold change vs veh, CNOT2 / RFU, ZNF268 / Fold change vs veh, ZNF268 / Fold change vs veh, ZNF507 / RFU, DGCR2 / Fold change vs veh, DGCR2 / RFU, WDSUB1 / Fold change vs veh, WDSUB1 / Fold change vs veh, HSP90B1 /// MIR3652 / RFU, ADSS / Fold change vs veh, ADSS / RFU, GK / Fold change vs veh, GK / RFU, ZNF148 / Fold change vs veh, ZNF148 / RFU, TAF9 / Fold change vs veh, TAF9 / RFU, SLC1A5 / Fold change vs veh, SLC1A5 / RFU, SLMO2 / Fold change vs veh, SLMO2 / RFU, ABCC4 / Fold change vs veh, ABCC4 / RFU, LOC101060439 /// RAP1B / Fold change vs veh, LOC101060439 /// RAP1B / RFU, RFX7 / Fold change vs veh, RFX7 / RFU, GTPBP10 / Fold change vs veh, GTPBP10 / RFU, CNEP1R1 / Fold change vs veh, CNEP1R1 / RFU, BIVM-ERCC5 /// ERCC5 / Fold change vs veh, BIVM-ERCC5 /// ERCC5 / RFU, ILF3 / Fold change vs veh, ILF3 / RFU 11762660_at / Fold change /veh 11762660_at / RFU VCAN (11757783_s_at) / Fold change /veh VCAN (11757783_s_at) / RFU DDX43 (11728927_at) / Fold change /veh DDX43 (11728927_at) / RFU KRT8 (11758188_x_at) / Fold change /veh KRT8 (11758188_x_at) / RFU NKD1 (11759106_at) / Fold change /veh NKD1 (11759106_at) / RFU SRD5A1 (11742802_a_at) / Fold change /veh SRD5A1 (11742802_a_at) / RFU TPSAB1 /// TPSB2 (11721975_s_at) / Fold change /veh TPSAB1 /// TPSB2 (11721975_s_at) / RFU GSTM3 (11746129_a_at) / Fold change /veh GSTM3 (11746129_a_at) / RFU IL23R (11737362_x_at) / Fold change /veh IL23R (11737362_x_at) / RFU TMEM51 (11727254_a_at) / Fold change /veh TMEM51 (11727254_a_at) / RFU PIWIL2 (11732686_x_at) / Fold change /veh PIWIL2 (11732686_x_at) / RFU ORM1 (11744905_x_at) / Fold change /veh ORM1 (11744905_x_at) / RFU CCDC152 (11743942_at) / Fold change /veh CCDC152 (11743942_at) / RFU ECM1 (11717891_a_at) / Fold change /veh ECM1 (11717891_a_at) / RFU IL23R (11748794_a_at) / Fold change /veh IL23R (11748794_a_at) / RFU TNFAIP8L3 (11732012_x_at) / Fold change /veh TNFAIP8L3 (11732012_x_at) / RFU MBOAT4 (11741988_at) / Fold change /veh MBOAT4 (11741988_at) / RFU 11764193_at / Fold change /veh 11764193_at / RFU TMEM53 (11763286_at) / Fold change /veh TMEM53 (11763286_at) / RFU MAGEB2 (11727129_at) / Fold change /veh MAGEB2 (11727129_at) / RFU TMEM200A (11744735_a_at) / Fold change /veh TMEM200A (11744735_a_at) / RFU CCDC152 (11751479_a_at) / Fold change /veh CCDC152 (11751479_a_at) / RFU FAM211A (11726209_a_at) / Fold change /veh FAM211A (11726209_a_at) / RFU RGS16 (11746705_a_at) / Fold change /veh RGS16 (11746705_a_at) / RFU VCAN (11755009_s_at) / Fold change /veh VCAN (11755009_s_at) / RFU RHOB (11743442_s_at) / Fold change /veh RHOB (11743442_s_at) / RFU RGS16 (11720943_a_at) / Fold change /veh RGS16 (11720943_a_at) / RFU RGS16 (11720944_at) / Fold change /veh RGS16 (11720944_at) / RFU, VPS4B / Fold change vs veh, VPS4B / RFU, CREB1 / Fold change vs veh, CREB1 / RFU, DNAJC13 / Fold change vs veh, DNAJC13 / RFU, GNAQ / Fold change vs veh, GNAQ / RFU, CDK5R1 / Fold change vs veh, CDK5R1 / RFU, ZRANB3 / Fold change vs veh, ZRANB3 / RFU, CUL4A / Fold change vs veh, CUL4A / RFU, CCNY / Fold change vs veh, CCNY / RFU, UFL1 / Fold change vs veh, UFL1 / RFU, COG3 / Fold change vs veh, COG3 / RFU, DIAPH2 / Fold change vs veh, DIAPH2 / RFU, SKA2 / Fold change vs veh, SKA2 / RFU, AFF3 / Fold change vs veh, AFF3 / RFU, LMF1 / Fold change vs veh, LMF1 / RFU, IPO11 / Fold change vs veh, IPO11 / RFU, DFFB / Fold change vs veh, DFFB / RFU, FOXP1 / Fold change vs veh, FOXP1 / RFU, CARD8 / Fold change vs veh, CARD8 / RFU, STRN3 / Fold change vs veh, STRN3 / RFU, ADK / Fold change vs veh, ADK / RFU, RASSF2 / Fold change vs veh, RASSF2 / RFU, WIPF1 / Fold change vs veh, WIPF1 / RFU, LARP1B / Fold change vs veh, LARP1B / RFU, RASA1 / Fold change vs veh, RASA1 / RFU, RB1 / Fold change vs veh, RB1 / RFU, PPFIA1 / Fold change vs veh, PPFIA1 / RFU, MAT2A / Fold change vs veh, MAT2A / RFU, CCT5 / Fold change vs veh, CCT5 / RFU, WDR92 / Fold change vs veh, WDR92 / RFU, CUX1 / Fold change vs veh, CUX1 / RFU, TTC7A / Fold change vs veh, TTC7A / RFU, TMEM135 / Fold change vs veh, TMEM135 / RFU, DEPTOR / Fold change vs veh, DEPTOR / RFU, CPM / Fold change vs veh, CPM / RFU, DNAJB6 / Fold change vs veh, DNAJB6 / RFU, CACNA2D3 / Fold change vs veh, CACNA2D3 / RFU, DTX4 / Fold change vs veh, DTX4 / RFU, TFCP2 / Fold change vs veh, TFCP2 / RFU, GMCL1 /// GMCL1P1 / Fold change vs veh, GMCL1 /// GMCL1P1 / RFU, AEBP2 / Fold change vs veh, AEBP2 / RFU, SNHG1 /// SNORD22 /// SNORD25 /// SNORD26 /// SNORD27 /// SNORD28 /// SNORD29 /// SNORD31 / Fold change vs veh, SNHG1 /// SNORD22 /// SNORD25 /// SNORD26 /// SNORD27 /// SNORD28 /// SNORD29 /// SNORD31 / Fold change (Aza/veh), C12orf56 (ProbeSet 11735607_a_at) / Fold change (ACY-1035/veh), C12orf56 (ProbeSet 11735607_a_at) / Fold change (Aza/veh), FGFR1OP (ProbeSet 11751329_s_at) / Fold change (ACY-1035/veh), FGFR1OP (ProbeSet 11751329_s_at) / Fold change (Aza/veh), VPS36 (ProbeSet 11739960_a_at) / Fold change (ACY-1035/veh), VPS36 (ProbeSet 11739960_a_at) / RFU SYPL1 (11715823_x_at) / Fold change /veh SYPL1 (11715823_x_at) / RFU IGFBP7 (11715501_s_at) / Fold change /veh IGFBP7 (11715501_s_at) / RFU REEP3 (11722064_at) / Fold change /veh REEP3 (11722064_at) / RFU IGLL1 (11728026_x_at) / Fold change /veh IGLL1 (11728026_x_at): dose or concentration left out as unconfirmed
Settings: ProbeSet 11739696_s_at; LIST D

Nc1ncn([C@@H]2O[C@H](CO)[C@@H](O)[C@H]2O)c(=O)n1 [azacitidine]
RFU, AFF3: 345.70 RFU
